Measurements: patent US20230295162A1 (EÖTVÖS LORÁND TUDOMÁNYEGYETEM, priority 2020, published 2023)

Experiments:
Assay in all cases: Cell viability assay, CellTiter-Glo (Example 21)
Format in all cases: cell-based, human
[1] = tested on: Capan-1 (pancreas, adenocarcinoma) cells; settings: 72 h treatment
Protocol: (§1) Effect of the selected compounds on cancer cell viability was measured via CellTiter-Glo® luminescent cell viability assay (Promega, Madison, WI, USA) according to the manufacturer's instructions. Cells were plated onto a flat-bottomed, white 96 well plate (BRANDplates®, cat. no.: 781965). Density of the seeded cells was optimized based on their size and growth rate, as the follows: Panc-1:750 cells/well; DU 145, PC-3, Capan-1, MIA PaCa-2, SCC-25, FaDu and EBC-1: 1000 cells/well; LNCaP, Detroit 562, MDA-MB-231 and MDA-MB-453 1500 cells/well. […] After the treatment, the luminescence signal was recorded using a microplate reader (BioTek Synergy 2 Multi-Mode Reader, BioTek, Winooski, VT, USA). Dose-response curves were generated by GraphPad Prism 8.4.2. software using a non-linear regression model (variable slope, four parameters), (see FIGS. 12-51).

[2] = tested on: Panc-1 (pancreas, carcinoma) cells; settings: 72 h treatment
Protocol: as §1

[3] = tested on: PC-3 (prostate, adenocarcinoma) cells; settings: 72 h treatment
Protocol: as §1

[4] = tested on: SCC-25 (tongue, squamous cell carcinoma) cells; settings: 72 h treatment
Protocol: as §1

[5] = tested on: LNCaP (prostate, carcinoma) cells; settings: 72 h
Protocol: as §1

[6] = tested on: MDA-MB-231 (breast, adenocarcinoma) cells; settings: 72 h treatment
Protocol: as §1

[7] = tested on: Detroit 562 (pharynx, carcinoma) cells; settings: 72 h treatment
Protocol: as §1

[8] = tested on: MIA PaCa-2 (pancreas, carcinoma) cells; settings: 72 h treatment
Protocol: as §1

[9] = tested on: FaDu (pharynx, squamous cell carcinoma) cells; settings: 72 h treatment
Protocol: as §1

[10] = tested on: EBC-1 (lung, squamous cell carcinoma) cells; settings: 72 h treatment
Protocol: as §1

[11] = tested on: MDA-MB-453 (breast, carcinoma) cells; settings: 72 h treatment
Protocol: as §1

[12] = tested on: DU 145 (prostate, carcinoma) cells; settings: 72 h
Protocol: as §1

Question: Which “Capan-1 (pancreas, adenocarcinoma) cell viability (% of control)” value ([1]; 3.7 nM) does the source give for `O=C1C2=C(CCN(Cc3cc(F)cc(F)c3)C2)N2CCN=C2N1Cc1ccc(Cl)cc1` [I/124, 4-(4-Chlorobenzyl)-7-(3,5-difluorobenzyl)-2,4,6,7,8,9-hexahydroimidazo[1,2-a]pyrido[3,4-e]pyrimidin-5(1H)-one] here?
Answer: 88.5 ± 1.8 % of control

Question: And the “Capan-1 (pancreas, adenocarcinoma) cell viability (% of control)” value ([1]; 11.1 nM)?
Answer: 35.3 ± 3.1 % of control

Question: And the “Capan-1 (pancreas, adenocarcinoma) cell viability (% of control)” value ([1]; 100 nM)?
Answer: 33.6 ± 1.1 % of control

Question: And the “Capan-1 (pancreas, adenocarcinoma) cell viability (% of control)” value ([1]; 300 nM)?
Answer: 34.6 ± 2.4 % of control

Question: And the “Panc-1 (pancreas, carcinoma) cell viability (% of control)” value ([2]; 3.7 nM)?
Answer: 99.7 ± 3.0 % of control

Question: What about the “Panc-1 (pancreas, carcinoma) cell viability (% of control)” value ([2]; 11.1 nM) of the same compound?
Answer: 56.9 ± 0.2 % of control

Question: What about the “Panc-1 (pancreas, carcinoma) cell viability (% of control)” value ([2]; 100 nM) of the same compound?
Answer: 50.9 ± 0.3 % of control

Question: What about the “Panc-1 (pancreas, carcinoma) cell viability (% of control)” value ([2]; 300 nM) of the same compound?
Answer: 51.2 ± 0.4 % of control

Question: And the “PC-3 (prostate, adenocarcinoma) cell viability (% of control)” value ([3]; 3.7 nM)?
Answer: 46.9 ± 4.2 % of control

Question: And the “PC-3 (prostate, adenocarcinoma) cell viability (% of control)” value ([3]; 11.1 nM)?
Answer: 33.9 ± 3.3 % of control

Question: What about the “PC-3 (prostate, adenocarcinoma) cell viability (% of control)” value ([3]; 100 nM) of the same compound?
Answer: 32.8 ± 3.2 % of control

Question: What about the “PC-3 (prostate, adenocarcinoma) cell viability (% of control)” value ([3]; 300 nM) of the same compound?
Answer: 32.7 ± 14.4 % of control

Question: What about the “SCC-25 (tongue, squamous cell carcinoma) cell viability (% of control)” value ([4]; 3.7 nM) of the same compound?
Answer: 47.2 ± 5.8 % of control

Question: What about the “SCC-25 (tongue, squamous cell carcinoma) cell viability (% of control)” value ([4]; 11.1 nM) of the same compound?
Answer: 34.3 ± 2.0 % of control

Question: What about the “SCC-25 (tongue, squamous cell carcinoma) cell viability (% of control)” value ([4]; 100 nM) of the same compound?
Answer: 37.5 ± 1.4 % of control

Question: What about the “SCC-25 (tongue, squamous cell carcinoma) cell viability (% of control)” value ([4]; 300 nM) of the same compound?
Answer: 42.3 ± 5.2 % of control

Question: And the LNCaP cell viability ([5]; 3.7 nM)?
Answer: 20.8 ± 2.0 % of control

Question: And the LNCaP cell viability ([5]; 11.1 nM)?
Answer: 13.3 ± 1.6 % of control

Question: And the LNCaP cell viability ([5]; 100 nM)?
Answer: 12.7 ± 0.8 % of control

Question: What about the LNCaP cell viability ([5]; 300 nM) of the same compound?
Answer: 13.0 ± 0.7 % of control

Question: What about the “MDA-MB-231 (breast, adenocarcinoma) cell viability (% of control)” value ([6]; 3.7 nM) of the same compound?
Answer: 82.4 ± 7.2 % of control

Question: And the “MDA-MB-231 (breast, adenocarcinoma) cell viability (% of control)” value ([6]; 11.1 nM)?
Answer: 59.4 ± 4.5 % of control

Question: What about the “MDA-MB-231 (breast, adenocarcinoma) cell viability (% of control)” value ([6]; 100 nM) of the same compound?
Answer: 55.9 ± 5.3 % of control

Question: And the “MDA-MB-231 (breast, adenocarcinoma) cell viability (% of control)” value ([6]; 300 nM)?
Answer: 54.2 ± 2.4 % of control

Question: And the “Detroit 562 (pharynx, carcinoma) cell viability (% of control)” value ([7]; 3.7 nM)?
Answer: 29.4 ± 4.9 % of control

Question: And the “Detroit 562 (pharynx, carcinoma) cell viability (% of control)” value ([7]; 11.1 nM)?
Answer: 27.8 ± 3.6 % of control

Question: What about the “Detroit 562 (pharynx, carcinoma) cell viability (% of control)” value ([7]; 100 nM) of the same compound?
Answer: 28.3 ± 3.6 % of control

Question: What about the “Detroit 562 (pharynx, carcinoma) cell viability (% of control)” value ([7]; 300 nM) of the same compound?
Answer: 31.5 ± 3.7 % of control

Question: And the “MIA PaCa-2 (pancreas, carcinoma) cell viability (% of control)” value ([8]; 3.7 nM)?
Answer: 33.5 ± 12.1 % of control

Question: And the “MIA PaCa-2 (pancreas, carcinoma) cell viability (% of control)” value ([8]; 11.1 nM)?
Answer: 18.9 ± 7.1 % of control

Question: What about the “MIA PaCa-2 (pancreas, carcinoma) cell viability (% of control)” value ([8]; 100 nM) of the same compound?
Answer: 18.7 ± 7.1 % of control

Question: What about the “MIA PaCa-2 (pancreas, carcinoma) cell viability (% of control)” value ([8]; 300 nM) of the same compound?
Answer: 18.0 ± 7.3 % of control

Question: And the “FaDu (pharynx, squamous cell carcinoma) cell viability (% of control)” value (“FaDu … (% of control)” for short) ([9]; 3.7 nM)?
Answer: 45.6 ± 20.7 % of control

Question: And the “FaDu … (% of control)” value ([9]; 11.1 nM)?
Answer: 26.1 ± 6.2 % of control

Question: What about the “FaDu … (% of control)” value ([9]; 100 nM) of the same compound?
Answer: 24.5 ± 4.6 % of control

Question: What about the “FaDu … (% of control)” value ([9]; 300 nM) of the same compound?
Answer: 24.7 ± 5.0 % of control

Question: And the “EBC-1 (lung, squamous cell carcinoma) cell viability (% of control)” value ([10]; 3.7 nM)?
Answer: 70.9 ± 8.3 % of control

Question: What about the “EBC-1 (lung, squamous cell carcinoma) cell viability (% of control)” value ([10]; 11.1 nM) of the same compound?
Answer: 25.3 ± 0.7 % of control

Question: What about the “EBC-1 (lung, squamous cell carcinoma) cell viability (% of control)” value ([10]; 100 nM) of the same compound?
Answer: 22.4 ± 0.5 % of control

Question: And the “EBC-1 (lung, squamous cell carcinoma) cell viability (% of control)” value ([10]; 300 nM)?
Answer: 23.5 ± 1.3 % of control

Question: And the “MDA-MB-453 (breast, carcinoma) cell viability (% of control)” value ([11]; 3.7 nM)?
Answer: 37.9 ± 3.2 % of control

Question: And the “MDA-MB-453 (breast, carcinoma) cell viability (% of control)” value ([11]; 11.1 nM)?
Answer: 33.5 ± 1.8 % of control

Question: What about the “MDA-MB-453 (breast, carcinoma) cell viability (% of control)” value ([11]; 100 nM) of the same compound?
Answer: 31.2 ± 2.2 % of control

Question: And the “MDA-MB-453 (breast, carcinoma) cell viability (% of control)” value ([11]; 300 nM)?
Answer: 30.9 ± 1.4 % of control

Question: And the “DU 145 cell viability” value ([12]; 3.7 nM)?
Answer: 10.0 ± 1.4 % of control

Question: What about the “DU 145 cell viability” value ([12]; 11.1 nM) of the same compound?
Answer: 7.0 ± 1.1 % of control

Question: And the “DU 145 cell viability” value ([12]; 100 nM)?
Answer: 8.0 ± 1.0 % of control

Question: And the “DU 145 cell viability” value ([12]; 300 nM)?
Answer: 7.7 ± 1.8 % of control
